We go through 21 compounds from patent US10689354B2, “Aminoazole derivative” (Teijin Pharma Limited, priority 2015, dated 2020).

The target of test [1] is T1, androgen receptor (AR-LBD) (Rattus norvegicus, UniProt P15207).
T1 construct: 5 μL of 2×AR-LBD/Fluoromone AL Red Complex contained in the kit; purchased Invitrogen
T1 sequence (P15207 651-882 limits assumed): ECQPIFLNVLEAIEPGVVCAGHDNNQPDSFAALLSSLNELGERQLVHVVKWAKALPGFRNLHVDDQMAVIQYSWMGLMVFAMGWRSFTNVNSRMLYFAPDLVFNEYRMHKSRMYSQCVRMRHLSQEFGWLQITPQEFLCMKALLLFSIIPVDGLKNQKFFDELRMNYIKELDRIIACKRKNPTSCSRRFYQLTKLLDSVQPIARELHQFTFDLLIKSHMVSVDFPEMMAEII
In words: Evaluation of androgen receptor affinity (PolarScreen Androgen Receptor Competitor Assay Kit, Red; fluorescence polarization). Particulars: 22° C. for 5 hours, relative to binding rate of 1 μM DHT, read-out: AR affinity (pEC50) (converted). In a few lines: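 pEC50 values reflect tracer displacement from AR-LBD (Fluoromone AL Red complex) measured by fluorescence polarization after 5 h at 22° C, normalized to 1 μM DHT and fitted with a 4-parameter model.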
In general terms: Fluorescence polarisation rises when a labelled molecule tumbles more slowly, as on binding a larger partner.

Test [2] addresses T2, human androgen receptor (Homo sapiens, UniProt P10275).
T2 construct: expressed in transfected cells; host or cells: HEK293
T2 sequence (P10275 1-920): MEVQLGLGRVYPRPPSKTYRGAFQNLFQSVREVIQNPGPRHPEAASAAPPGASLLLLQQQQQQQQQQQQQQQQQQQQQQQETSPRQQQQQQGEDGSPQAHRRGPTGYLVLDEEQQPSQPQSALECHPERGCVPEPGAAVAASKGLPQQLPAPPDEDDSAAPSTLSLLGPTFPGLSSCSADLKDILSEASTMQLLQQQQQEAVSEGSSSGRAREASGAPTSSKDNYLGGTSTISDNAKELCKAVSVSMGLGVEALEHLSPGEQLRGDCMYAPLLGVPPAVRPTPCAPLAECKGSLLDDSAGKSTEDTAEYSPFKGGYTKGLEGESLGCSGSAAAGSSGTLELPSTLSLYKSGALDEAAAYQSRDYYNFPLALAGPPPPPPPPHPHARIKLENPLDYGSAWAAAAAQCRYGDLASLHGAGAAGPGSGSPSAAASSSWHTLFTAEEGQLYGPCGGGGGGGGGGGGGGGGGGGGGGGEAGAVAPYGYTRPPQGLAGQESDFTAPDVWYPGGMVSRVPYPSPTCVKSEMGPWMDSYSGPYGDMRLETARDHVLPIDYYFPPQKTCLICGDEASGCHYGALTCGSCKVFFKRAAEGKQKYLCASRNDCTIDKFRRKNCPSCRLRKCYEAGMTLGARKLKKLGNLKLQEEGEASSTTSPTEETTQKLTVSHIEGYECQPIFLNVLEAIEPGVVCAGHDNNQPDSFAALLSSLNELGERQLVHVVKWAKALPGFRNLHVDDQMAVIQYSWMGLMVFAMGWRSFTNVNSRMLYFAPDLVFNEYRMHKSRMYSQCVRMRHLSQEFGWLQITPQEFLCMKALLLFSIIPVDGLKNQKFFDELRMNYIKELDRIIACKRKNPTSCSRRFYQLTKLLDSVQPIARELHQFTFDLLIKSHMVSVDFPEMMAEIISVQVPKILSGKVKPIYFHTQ
In words: Reporter assay of an androgen receptor responsive sequence (luciferase, transiently transfected HEK293 cells). It counts as cell-based. The conditions noted are these: 24 hours incubation, relative to activity of 100 nM DHT, read-out: AR transcriptive activity (pEC50) (converted). In a few lines: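 HEK293 cells transiently transfected for 3 h with ARE-firefly luciferase, full-length human AR and TK-Renilla plasmids, then exposed to compound for 24 h at 37 °C in 5% charcoal-treated FBS/DMEM. Dual-Glo luminescence read; pEC50 from 4-parameter fit relative to 100 nM DHT.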

In the case of `Cc1sc(N(Cc2ccc3c(c2)C(=O)CCO3)c2ccc(C#N)cc2)nc1C(=O)NS(C)(=O)=O` [Compound 138, 2-[4-cyano-N-[(4-oxochroman-6-yl)methyl]anilino]-5-methyl-N-methylsulfonyl-thiazole-4-carboxamide], the EC50 is 100 nM in test [1] and 251 nM in test [2].
On the same counts, the results for `Cc1sc(N(CCc2cccc(Cl)c2)c2ccc(C#N)cc2)nc1C(=O)NS(C)(=O)=O` [Compound 139, 2-[N-[2-(3-chlorophenyl)ethyl]-4-cyano-anilino]-5-methyl-N-methylsulfonyl-thiazole-4-carboxamide] are 79.4 nM and 1580 nM.
The corresponding values for `Cc1sc(N(CCc2ccccc2Cl)c2ccc(C#N)cc2)nc1C(=O)NS(C)(=O)=O` [Compound 140, 2-[N-[2-(2-chlorophenyl)ethyl]-4-cyano-anilino]-5-methyl-N-methylsulfonyl-thiazole-4-carboxamide] are 100 nM and 794 nM.
The corresponding values for `Cc1sc(N(Cc2ccc(-c3ccc(F)cc3)cc2)c2ccc(C#N)cc2)nc1C(=O)NS(C)(=O)=O` [Compound 141, 2-[4-cyano-N-[[4-(4-fluorophenyl)phenyl]methyl]anilino]-5-methyl-N-methylsulfonyl-thiazole-4-carboxamide] are 50.1 nM and 316 nM.
Take `Cc1sc(N(CCc2ccc(Cl)cc2)Cc2cccc(F)c2)nc1C(=O)NS(C)(=O)=O` [Compound 143, 2-[2-(4-chlorophenyl)ethyl-[(3-fluorophenyl)methyl]amino]-5-methyl-N-methylsulfonyl-thiazole-4-carboxamide]: the EC50 is 25.1 nM in test [1] and 50.1 nM in test [2].
On to `Cc1sc(N(CCc2ccc(Cl)cc2)Cc2cccc(Cl)c2)nc1C(=O)NS(C)(=O)=O` [Compound 144, 2-[2-(4-chlorophenyl)ethyl-[(3-chlorophenyl)methyl]amino]-5-methyl-N-methylsulfonyl-thiazole-4-carboxamide], for which the EC50 is 25.1 nM in test [1] and 63.1 nM in test [2].
On the same counts, the results for `Cc1sc(N(CCc2ccc(Cl)cc2)Cc2cccc(OC(F)(F)F)c2)nc1C(=O)NS(C)(=O)=O` [Compound 145, 2-[2-(4-chlorophenyl)ethyl-[[3-(trifluoromethoxy)phenyl]methyl]amino]-5-methyl-N-methylsulfonyl-thiazole-4-carboxamide] are 50.1 nM and 316 nM.
For the compound `Cc1sc(N(CCc2cccnc2)Cc2ccccc2)nc1C(=O)NS(C)(=O)=O` [Compound 147, 2-[benzyl-[2-(3-pyridyl)ethyl]amino]-5-methyl-N-methylsulfonyl-thiazole-4-carboxamide], the EC50 was over 2000 nM in test [1] and over 10000 nM in test [2].
The corresponding values for `Cc1sc(N(CCc2ccc(F)c(F)c2)Cc2ccccc2)nc1C(=O)NS(C)(=O)=O` [Compound 148, 2-[benzyl-[2-(3,4-difluorophenyl)ethyl]amino]-5-methyl-N-methylsulfonyl-thiazole-4-carboxamide] are 25.1 nM and 100 nM.
On to `Cc1sc(N(Cc2ccc(Cl)cn2)c2ccc(C#N)cc2)nc1C(=O)NS(C)(=O)=O` [Compound 152, 2-[N-[(5-chloro-2-pyridyl)methyl]-4-cyano-anilino]-5-methyl-N-methylsulfonyl-thiazole-4-carboxamide], for which the EC50 in test [1] was 200 nM; in test [2] it was 100 nM.
The corresponding values for `Cc1sc(N(Cc2ccc(Br)cn2)c2ccc(C#N)cc2)nc1C(=O)NS(C)(=O)=O` [Compound 153, 2-[N-[(5-bromo-2-pyridyl)methyl]-4-cyano-anilino]-5-methyl-N-methylsulfonyl-thiazole-4-carboxamide] are 100 nM and 50.1 nM.
The corresponding values for `Cc1sc(N(Cc2ccc(C(F)(F)F)nc2)c2ccc(C#N)cc2)nc1C(=O)NS(C)(=O)=O` [Compound 154, 2-[4-cyano-N-[[6-(trifluoromethyl)-3-pyridyl]methyl]anilino]-5-methyl-N-methylsulfonyl-thiazole-4-carboxamide] are 200 nM and 200 nM.
The corresponding values for `Cc1sc(N(Cc2ccc(C(F)F)c(F)c2)c2ccc(C#N)cc2)nc1C(=O)NS(C)(=O)=O` [Compound 155, 2-[4-cyano-N-[[4-(difluoromethyl)-3-fluoro-phenyl]methyl]anilino]-5-methyl-N-methylsulfonyl-thiazole-4-carboxamide] are 31.6 nM and 15.8 nM.
With `Cc1sc(N(Cc2ccc(C(F)F)cc2F)c2ccc(C#N)cc2)nc1C(=O)NS(C)(=O)=O` [Compound 156, 2-[4-cyano-N-[[4-(difluoromethyl)-2-fluoro-phenyl]methyl]anilino]-5-methyl-N-methylsulfonyl-thiazole-4-carboxamide], the values for the EC50 in test [1] and in test [2] were 39.8 nM and 63.1 nM, respectively.
The corresponding values for `COCCCS(=O)(=O)NC(=O)c1nc(N(Cc2ccc(OC(F)(F)F)cc2)c2ccc(C#N)cc2)sc1C` [Compound 157, 2-[4-cyano-N-[[4-(trifluoromethoxy)phenyl]methyl]anilino]-N-(3-methoxypropylsulfonyl)-5-methyl-thiazole-4-carboxamide] are 31.6 nM and 200 nM.
`Cc1sc(N(CCc2ccc(Cl)cc2)Cc2ccc(Cl)cn2)nc1C(=O)NS(C)(=O)=O` [Compound 158, 2-[2-(4-chlorophenyl)ethyl-[(5-chloro-2-pyridyl)methyl]amino]-5-methyl-N-methylsulfonyl-thiazole-4-carboxamide]: the figures for the EC50 in test [1] and in test [2] were 100 nM and 631 nM, respectively.
The corresponding values for `Cc1sc(N(CCc2ccc(OC(F)F)cc2)Cc2ccc(F)cc2)nc1C(=O)NS(C)(=O)=O` [Compound 159, 2-[2-[4-(difluoromethoxy)phenyl]ethyl-[(4-fluorophenyl)methyl]amino]-5-methyl-N-methylsulfonyl-thiazole-4-carboxamide] are 63.1 nM and 398 nM.
On the same counts, the results for `Cc1sc(N(CCc2ccc(OC(F)F)cc2)Cc2ccccc2)nc1C(=O)NS(C)(=O)=O` [Compound 160, 2-[benzyl-[2-[4-(difluoromethoxy)phenyl]ethyl]amino]-5-methyl-N-methylsulfonyl-thiazole-4-carboxamide] are 100 nM and 501 nM.
In the case of `Cc1sc(N(CCc2ccc(Cl)cc2)Cc2nc(C3CC3)no2)nc1C(=O)NS(C)(=O)=O` [Compound 161, 2-[2-(4-chlorophenyl)ethyl-[(3-cyclopropyl-1,2,4-oxadiazol-5-yl)methyl]amino]-5-methyl-N-methylsulfonyl-thiazole-4-carboxamide], the figures for the EC50 in test [1] and in test [2] were 126 nM and 501 nM, respectively.
On the same counts, the results for `Cc1sc(N(CCc2ccc(OC(F)F)cc2)Cc2nc(C3CC3)no2)nc1C(=O)NS(C)(=O)=O` [Compound 162, 2-[(3-cyclopropyl-1,2,4-oxadiazol-5-yl)methyl-[2-[4-(difluoromethoxy)phenyl]ethyl]amino]-5-methyl-N-methylsulfonyl-thiazole-4-carboxamide] are 158 nM and 1000 nM.
On the same counts, the results for `COCCCS(=O)(=O)NC(=O)c1nc(N(Cc2ccc(Cl)cn2)c2ccc(C#N)cc2)sc1C` [Compound 163, 2-[N-[(5-chloro-2-pyridyl)methyl]-4-cyano-anilino]-N-(3-methoxypropylsulfonyl)-5-methyl-thiazole-4-carboxamide] are 200 nM and 251 nM.
